Source: patent US10344019B2 (priority 2010, dated 2019)

Legend:
Test in all cases: microbe, parasite or virus in culture
Format in all cases: cell-based
[1] = tested on: HCV 1a RLuc cells (dicistronic genotype 1a H77 replicon, RLuc reporter); conditions: Hepatitis C virus, genotype 1a replicon; read-out: 1a
Summary of the method: (§1)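 Renilla luciferase HCV replicon cells: dicistronic 1b Con1, 1a H77 or 2a JFH-1 replicons, or a JFH-1 chimera carrying J6 NS5A (M31 present). Compound in DMSO serial dilutions, 72 h incubation, then lysis and luciferase read. EC50 by non-linear regression.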

[2] = tested on: HCV 1b RLuc cells (dicistronic genotype 1b Con1 replicon, RLuc reporter); conditions: Hepatitis C virus, read-out: 1b (nM)
Summary of the method: as §1

[3] = tested on: HCV 2a JFH-1 Rluc cells (dicistronic genotype 2a JFH-1 replicon, RLuc reporter); conditions: Hepatitis C virus, genotype 2a JFH-1 replicon; read-out: 2a JFH
Summary of the method: as §1

[4] = tested on: HCV 3a RLuc cells (NS5A chimeric genotype 1b Con1 replicon with consensus genotype 3a NS5A gene); conditions: Hepatitis C virus, read-out: 3a, genotype 3a replicon
Summary of the method: (§2)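 Replicon cells stably carrying the listed RLuc-encoding dicistronic replicons were seeded and treated with DMSO serial dilutions of compound (10 mM stocks) diluted into culture medium. After 72 h, cells were lysed and Renilla luciferase activity measured. EC50 was derived by non-linear regression.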

[5] = tested on: HCV 4a Rluc cells (NS5A chimeric genotype 1b Con1 replicon with genotype 4a NS5A gene); conditions: Hepatitis C virus, read-out: 4a
Summary of the method: as §2

Row | SMILES | EC50 [1] [nM] | EC50 [2] [nM] | EC50 [3] [nM] | EC50 [4] [nM] | EC50 [5] [nM]
1 | COC(=O)N[C@H](C(=O)N1CCC[C@H]1c1nc2ccc3cc(-c4ccc(-c5cnc([C@@H]6CC7(CN6C(=O)[C@H](NC(=O)OC)c6ccccc6)OCCO7)[nH]5)cc4)ccc3c2[nH]1)C1CCOCC1 [Example 297] | 0.001 to 0.999 | 0.357 | 0.001 to 0.999 | 0.001 to 0.99 | 0.001 to 0.99
2 | COC(=O)N[C@H](C(=O)N1CCC[C@H]1c1ncc(-c2ccc(-c3ccc4c(c3)c3ccccc3c3nc([C@@H]5CCCN5C(=O)[C@@H](NC(=O)OC)C(C)C)[nH]c43)cc2)[nH]1)C(C)C [Example 299] | 1 to 44 | 0.017 | 1 to 44 | > 5 | 0.001 to 0.99
3 | COC(=O)N[C@H](C(=O)N1CCC[C@H]1c1nc2c3ccccc3c3cc(-c4ccc(-c5cnc([C@@H]6CCCN6C(=O)[C@@H](NC(=O)OC)C6CCOCC6)[nH]5)cc4)ccc3c2[nH]1)C(C)C [Example 300] | 1 to 44 | 0.023 | 0.001 to 0.999 | 1 to 4.99 | 0.001 to 0.99
4 | COC(=O)N[C@H](C(=O)N1CCC[C@H]1c1nc2c3ccccc3c3cc(-c4ccc(-c5cnc([C@@H]6CCCN6C(=O)[C@@H](NC(=O)OC)[C@@H](C)OC)[nH]5)cc4)ccc3c2[nH]1)C(C)C [Example 301] | 1 to 44 | 0.019 | 1 to 44 | 1 to 4.99 | 0.001 to 0.99
5 | COC(=O)N[C@H](C(=O)N1[C@@H]2CC[C@@H](C2)[C@H]1c1ncc(-c2ccc(-c3ccc4c(ccc5nc([C@@H]6CCCN6C(=O)[C@@H](NC(=O)OC)C6CCOCC6)[nH]c54)c3)cc2F)[nH]1)C(C)C [Example 302] | 0.001 to 0.999 | 0.021 | 0.001 to 0.999 | 0.001 to 0.99 | 0.001 to 0.99
6 | COC(=O)N[C@H](C(=O)N1CCC[C@H]1c1ncc(-c2ccc3c(ccc4cc(-c5cnc([C@@H]6[C@H]7CC[C@H](C7)N6C(=O)[C@@H](NC(=O)OC)C(C)C)[nH]5)ccc43)c2)[nH]1)C(C)C [Example 303] | 0.001 to 0.999 | 0.008 | 0.001 to 0.999 | 0.001 to 0.99 | 0.001 to 0.99
7 | COC(=O)N[C@H](C(=O)N1CCC[C@H]1c1nc2ccc3cc(-c4ccc(-c5cnc([C@@H]6[C@H]7CC[C@H](C7)N6C(=O)[C@@H](NC(=O)OC)C6CCOCC6)[nH]5)c(F)c4)ccc3c2[nH]1)C(C)C [Example 305] | 0.001 to 0.999 | 0.017 | 0.001 to 0.999 | 0.001 to 0.99 | 0.001 to 0.99
8 | COC(=O)N[C@H](C(=O)N1CCC[C@H]1c1ncc(-c2cc3c4c(c2)OCc2cc(-c5cnc([C@@H]6CCCN6C(=O)C(c6ccccc6)N(C)C)[nH]5)cc(c2-4)OC3)[nH]1)C(C)C (stereo partly shown) [Example 307] | 0.001 to 0.999 | 0.091 | 0.001 to 0.999 | 0.001 to 0.99 | 0.001 to 0.99
9 | COC(=O)N[C@H](C(=O)N1CCC[C@H]1c1ncc(-c2ccc3c(c2)COc2c-3ccc(-c3cnc([C@@H]4CCCN4C(=O)[C@@H](NC(=O)OC)C(C)C)[nH]3)c2F)[nH]1)C(C)C [Example 308] | 0.001 to 0.999 | 0.008 | 0.001 to 0.999 | 0.001 to 0.99 | 0.001 to 0.99
10 | COC(=O)N[C@H](C(=O)N1CCC[C@H]1c1ncc(-c2ccc3c4ccc(-c5cnc([C@@H]6CCCN6C(=O)[C@@H](NC(=O)OC)C6CCOCC6)[nH]5)cc4c4ccccc4c3c2)[nH]1)C1CCOCC1 [Example 309] | 0.001 to 0.999 | 0.219 | 0.001 to 0.999 | 0.001 to 0.99 | 0.001 to 0.99
11 | COC(=O)N[C@H](C(=O)N1CCC[C@H]1c1ncc(-c2ccc3c4ccc(-c5cnc([C@@H]6CCCN6C(=O)[C@@H](NC(=O)OC)[C@@H](C)OC)[nH]5)cc4c4ccccc4c3c2)[nH]1)[C@@H](C)OC [Example 310] | 0.001 to 0.999 | 0.041 | 0.001 to 0.999 | 0.001 to 0.99 | 0.001 to 0.99
12 | COC(=O)N[C@H](C(=O)N1CCC[C@H]1c1ncc(-c2ccc3c4ccc(-c5cnc([C@@H]6CCCN6C(=O)[C@@H](NC(=O)OC)[C@@H](C)OC)[nH]5)cc4c4ccccc4c3c2)[nH]1)C(C)C [Example 311] | 0.001 to 0.999 | 0.025 | 0.001 to 0.999 | 0.001 to 0.99 | 0.001 to 0.99
13 | COC(=O)N[C@H](C(=O)N1[C@@H]2CC[C@@H](C2)[C@H]1c1ncc(-c2ccc(-c3ccc4c(ccc5nc([C@@H]6CCCN6C(=O)[C@H](NC(=O)OC)c6ccccc6)[nH]c54)c3)cc2F)[nH]1)C(C)C [Example 312] | 1 to 44 | 0.011 | 0.001 to 0.999 | 0.001 to 0.99 | 0.001 to 0.99
14 | COC(=O)N[C@H](C(=O)N1CCC[C@H]1c1ncc(-c2cc3c4c(c2)OCc2cc(-c5cnc([C@@H]6CCCN6C(=O)[C@@H](NC(=O)OC)[C@@H](C)OC)[nH]5)cc(c2-4)OC3)[nH]1)C(C)C [Example 313] | 0.001 to 0.999 | 0.079 | 0.001 to 0.999 | 0.001 to 0.99 | 0.001 to 0.99
15 | COC(=O)N[C@H](C(=O)N1CCS[C@H]1c1nc2ccc3cc(-c4ccc(-c5cnc([C@@H]6CCCN6C(=O)[C@@H](NC(=O)OC)C6CCOCC6)[nH]5)cc4)ccc3c2[nH]1)C(C)C [Example 316] | 0.001 to 0.999 | 0.242 | 0.001 to 0.999 | 0.001 to 0.99 | 0.001 to 0.99
16 | COC(=O)N[C@H](C(=O)N1[C@@H]2C[C@@H]2C[C@H]1c1nc2ccc3cc(-c4ccc(-c5cnc([C@@H]6[C@H]7CC[C@H](C7)N6C(=O)[C@@H](NC(=O)OC)C6CCOCC6)[nH]5)c(F)c4)ccc3c2[nH]1)C(C)C [Example 320] | 0.001 to 0.999 | 0.01 | 0.001 to 0.999 | 0.001 to 0.99 | 0.001 to 0.99
17 | COC(=O)NC(C(=O)N1[C@@H]2CC[C@@H](C2)[C@H]1c1ncc(-c2ccc(-c3ccc4c(ccc5nc([C@@H]6C[C@H]7C[C@H]7N6C(=O)[C@@H](NC(=O)OC)C(C)C)[nH]c54)c3)cc2F)[nH]1)[C@@H](C)OC (stereo partly shown) [Example 321] | 0.001 to 0.999 | 0.006 | 0.001 to 0.999 | 0.001 to 0.99 | 0.001 to 0.99
18 | CC#Cc1cc(-c2cnc([C@@H]3[C@H]4CC[C@H](C4)N3C(=O)[C@@H](NC(=O)OC)C3CCOCC3)[nH]2)ccc1-c1ccc2c(ccc3nc([C@@H]4CCCN4C(=O)[C@@H](NC(=O)OC)C(C)C)[nH]c32)c1 [Example 322] | 0.001 to 0.999 | 0.021 | 0.001 to 0.999 | 0.001 to 0.99 | 0.001 to 0.99
19 | COC(=O)N[C@H](C(=O)N1CCC[C@H]1c1ncc(-c2ccc3cc(-c4ccc5c(ccc6nc([C@@H]7[C@H]8CC[C@H](C8)N7C(=O)[C@H](NC(=O)OC)c7ccccc7)[nH]c65)c4)ccc3c2)[nH]1)C(C)C [Example 326] | 0.001 to 0.999 | 0.005 | 0.001 to 0.999 | 1 to 4.99 | 0.001 to 0.99
20 | COC(=O)N[C@H](C(=O)N1CCC[C@H]1c1ncc(-c2ccc3cc(-c4ccc5c(ccc6nc([C@@H]7[C@H]8CC[C@H](C8)N7C(=O)[C@H](NC(=O)OC)c7ccccc7)[nH]c65)c4)ccc3c2)[nH]1)C1CCOCC1 [Example 327] | 0.001 to 0.999 | 0.011 | 0.001 to 0.999 | 0.001 to 0.99 | 0.001 to 0.99
21 | COC(=O)N[C@H](C(=O)N1CCC[C@H]1c1ncc(-c2ccc3cc(-c4ccc5c(ccc6nc([C@@H]7[C@H]8CC[C@H](C8)N7C(=O)[C@H](NC(=O)OC)c7ccccc7)[nH]c65)c4)ccc3c2)[nH]1)[C@@H](C)OC [Example 328] | 0.001 to 0.999 | 0.008 | 0.001 to 0.999 | 1 to 4.99 | 0.001 to 0.99
22 | CC#Cc1cc(-c2cnc([C@@H]3[C@H]4CC[C@H](C4)N3C(=O)[C@@H](NC(=O)OC)C(C)C)[nH]2)ccc1-c1ccc(-c2cnc([C@@H]3CCCN3C(=O)[C@@H](NC(=O)OC)C(C)C)[nH]2)cc1 [Example 329] | 0.001 to 0.999 | 0.008 | 0.001 to 0.999 | 1 to 4.99 | 0.001 to 0.99
23 | COC(=O)N[C@H](C(=O)N1CCC[C@H]1c1ncc(-c2ccc3c(c2F)COc2c-3ccc(-c3cnc([C@@H]4CCCN4C(=O)[C@@H](NC(=O)OC)C(C)C)[nH]3)c2F)[nH]1)C(C)C [Example 330] | 0.001 to 0.999 | 0.006 | 0.001 to 0.999 | 0.001 to 0.99 | 0.001 to 0.99
24 | COC(=O)N[C@H](C(=O)N1CCC[C@H]1c1ncc(-c2ccc3c(c2)OCc2c-3ccc(-c3cnc([C@@H]4CCCN4C(=O)[C@@H](NC(=O)OC)C(C)C)[nH]3)c2F)[nH]1)C(C)C [Example 331] | 0.001 to 0.999 | 0.006 | 0.001 to 0.999 | 0.001 to 0.99 | 0.001 to 0.99
25 | COC(=O)N[C@H](C(=O)N1CCS[C@@H]1c1nc2ccc3cc(-c4ccc(-c5cnc([C@@H]6CCCN6C(=O)[C@@H](NC(=O)OC)C6CCOCC6)[nH]5)cc4)ccc3c2[nH]1)C(C)C [Example 332] | 1 to 44 | 1.25 | 0.001 to 0.999 | 1 to 4.99 | 0.001 to 0.99
26 | COC(=O)N[C@H](C(=O)N1CCC[C@H]1c1ncc(-c2ccc(-c3ccc4c(ccc5nc([C@@H]6SCCN6C(=O)[C@@H](NC(=O)OC)C(C)C)[nH]c54)c3)cc2)[nH]1)C(C)C [Example 333] | 1 to 44 | 0.646 | 0.001 to 0.999 | 1 to 4.99 | 0.001 to 0.99
